Data: the kinase profiling compilation of Christmann-Franck et al. (2016)

Assays:
Assay in all cases: radiometric filter-binding kinase assay, Kinase HotSpot
Details in all cases: compound 0.5 µM; ATP 10 µM
PAK4 (human) = PAK4 (human) (UniProt O96013)
MAPK3 (human) = MAPK3 (human) (UniProt P27361)
MAPK8 (human) = MAPK8 (human) (UniProt P45983)
MAPK10 (human) = MAPK10 (human) (UniProt P53779)
MARK4 (human) = MARK4 (human) (UniProt Q96L34)
ABL1 (human) = ABL1 (human) (UniProt P00519)
TSSK2 (human) = TSSK2 (human) (UniProt Q96PF2)
MAP3K11 (human) = MAP3K11 (human) (UniProt Q16584)
Chain of MAP3K11 (human) (Q16584 whole entry, looked up): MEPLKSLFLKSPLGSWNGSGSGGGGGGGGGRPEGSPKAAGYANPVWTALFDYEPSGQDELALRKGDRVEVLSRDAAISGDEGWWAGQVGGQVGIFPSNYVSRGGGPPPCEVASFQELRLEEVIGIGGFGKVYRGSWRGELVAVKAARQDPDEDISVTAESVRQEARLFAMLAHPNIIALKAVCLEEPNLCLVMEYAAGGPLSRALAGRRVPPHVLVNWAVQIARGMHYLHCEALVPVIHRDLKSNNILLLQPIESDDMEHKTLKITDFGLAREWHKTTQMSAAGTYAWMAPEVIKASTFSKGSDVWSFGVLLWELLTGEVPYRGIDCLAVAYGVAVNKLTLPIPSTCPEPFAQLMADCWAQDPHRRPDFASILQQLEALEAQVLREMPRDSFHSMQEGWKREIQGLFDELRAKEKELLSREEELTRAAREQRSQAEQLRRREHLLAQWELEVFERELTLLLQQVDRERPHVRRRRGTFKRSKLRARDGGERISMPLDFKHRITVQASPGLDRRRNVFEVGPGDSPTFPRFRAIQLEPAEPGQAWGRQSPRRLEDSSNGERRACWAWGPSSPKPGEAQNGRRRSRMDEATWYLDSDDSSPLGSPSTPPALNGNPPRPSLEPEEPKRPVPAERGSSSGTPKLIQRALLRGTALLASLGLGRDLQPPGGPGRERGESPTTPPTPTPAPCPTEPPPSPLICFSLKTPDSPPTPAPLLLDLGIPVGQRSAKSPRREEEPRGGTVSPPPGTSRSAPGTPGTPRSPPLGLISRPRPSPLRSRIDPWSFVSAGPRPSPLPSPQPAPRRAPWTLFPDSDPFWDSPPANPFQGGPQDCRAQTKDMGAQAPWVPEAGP

IRAK1 (human) = IRAK1 (human) (UniProt P51617)
CDK4 CCND1 (human) = CDK4 CCND1 (human) (UniProt P24385+P11802)
PRKD2 (human) = PRKD2 (human) (UniProt Q9BZL6)
DYRK4 (human) = DYRK4 (human) (UniProt Q9NR20)
DYRK1B (human) = DYRK1B (human) (UniProt Q9Y463)
JAK2 JH1 JH2 (human) = JAK2 JH1 JH2 (human) (UniProt O60674)
IKBKB (human) = IKBKB (human) (UniProt O14920)
Chain of IKBKB (human) (O14920 whole entry, looked up): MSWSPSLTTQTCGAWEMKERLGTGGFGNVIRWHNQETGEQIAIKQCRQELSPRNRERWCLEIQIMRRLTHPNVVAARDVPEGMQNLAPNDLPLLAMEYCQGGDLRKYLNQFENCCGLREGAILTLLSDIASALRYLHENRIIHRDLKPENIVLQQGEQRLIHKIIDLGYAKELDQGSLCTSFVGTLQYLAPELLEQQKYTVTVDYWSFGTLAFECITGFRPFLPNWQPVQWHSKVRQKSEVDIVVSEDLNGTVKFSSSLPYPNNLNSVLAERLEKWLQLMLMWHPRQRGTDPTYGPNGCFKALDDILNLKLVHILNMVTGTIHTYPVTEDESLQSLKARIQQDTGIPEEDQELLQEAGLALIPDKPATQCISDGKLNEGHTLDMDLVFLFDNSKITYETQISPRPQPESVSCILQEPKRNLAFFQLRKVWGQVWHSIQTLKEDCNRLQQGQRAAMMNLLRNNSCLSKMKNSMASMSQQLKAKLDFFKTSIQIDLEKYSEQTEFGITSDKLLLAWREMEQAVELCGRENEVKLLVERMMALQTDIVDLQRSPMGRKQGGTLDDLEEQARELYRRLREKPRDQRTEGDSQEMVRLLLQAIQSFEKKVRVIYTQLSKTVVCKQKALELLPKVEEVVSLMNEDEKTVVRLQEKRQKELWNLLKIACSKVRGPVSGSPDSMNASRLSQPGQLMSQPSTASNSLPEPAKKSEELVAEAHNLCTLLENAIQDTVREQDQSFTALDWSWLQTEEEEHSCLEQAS

ROCK2 (human) = ROCK2 (human) (UniProt O75116)
PRKCH (human) = PRKCH (human) (UniProt P24723)
SIK2 (human) = SIK2 (human) (UniProt Q9H0K1)
PRKCD (human) = PRKCD (human) (UniProt Q05655)
CSNK1A1 (human) = CSNK1A1 (human) (UniProt P48729)
Chain of CSNK1A1 (human) (P48729 whole entry, looked up): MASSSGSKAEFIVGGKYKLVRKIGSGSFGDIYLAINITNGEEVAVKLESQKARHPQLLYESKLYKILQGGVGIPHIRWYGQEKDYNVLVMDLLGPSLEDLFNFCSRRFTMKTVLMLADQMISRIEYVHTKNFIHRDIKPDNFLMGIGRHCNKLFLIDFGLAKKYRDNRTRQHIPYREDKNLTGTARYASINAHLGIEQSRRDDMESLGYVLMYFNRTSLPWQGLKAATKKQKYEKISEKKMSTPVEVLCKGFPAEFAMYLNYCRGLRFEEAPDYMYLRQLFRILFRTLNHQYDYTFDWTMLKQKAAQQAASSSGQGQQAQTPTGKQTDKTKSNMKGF

ABL2 (human) = ABL2 (human) (UniProt P42684)
STK39 (human) = STK39 (human) (UniProt Q9UEW8)
PAK7 (human) = PAK7 (human) (UniProt Q9P286)
ROS1 (human) = ROS1 (human) (UniProt P08922)
CLK4 (human) = CLK4 (human) (UniProt Q9HAZ1)
MAPK11 (human) = MAPK11 (human) (UniProt Q15759)
STK17A (human) = STK17A (human) (UniProt Q9UEE5)
CAMK2D (human) = CAMK2D (human) (UniProt Q13557)
PRKCB2 (human) = PRKCB2 (human) (UniProt P05771)
[1] = molecular target: JAK1 JH1 catalytic (human) (UniProt P23458)
Chain of JAK1 JH1 catalytic (human) (P23458 whole entry, looked up): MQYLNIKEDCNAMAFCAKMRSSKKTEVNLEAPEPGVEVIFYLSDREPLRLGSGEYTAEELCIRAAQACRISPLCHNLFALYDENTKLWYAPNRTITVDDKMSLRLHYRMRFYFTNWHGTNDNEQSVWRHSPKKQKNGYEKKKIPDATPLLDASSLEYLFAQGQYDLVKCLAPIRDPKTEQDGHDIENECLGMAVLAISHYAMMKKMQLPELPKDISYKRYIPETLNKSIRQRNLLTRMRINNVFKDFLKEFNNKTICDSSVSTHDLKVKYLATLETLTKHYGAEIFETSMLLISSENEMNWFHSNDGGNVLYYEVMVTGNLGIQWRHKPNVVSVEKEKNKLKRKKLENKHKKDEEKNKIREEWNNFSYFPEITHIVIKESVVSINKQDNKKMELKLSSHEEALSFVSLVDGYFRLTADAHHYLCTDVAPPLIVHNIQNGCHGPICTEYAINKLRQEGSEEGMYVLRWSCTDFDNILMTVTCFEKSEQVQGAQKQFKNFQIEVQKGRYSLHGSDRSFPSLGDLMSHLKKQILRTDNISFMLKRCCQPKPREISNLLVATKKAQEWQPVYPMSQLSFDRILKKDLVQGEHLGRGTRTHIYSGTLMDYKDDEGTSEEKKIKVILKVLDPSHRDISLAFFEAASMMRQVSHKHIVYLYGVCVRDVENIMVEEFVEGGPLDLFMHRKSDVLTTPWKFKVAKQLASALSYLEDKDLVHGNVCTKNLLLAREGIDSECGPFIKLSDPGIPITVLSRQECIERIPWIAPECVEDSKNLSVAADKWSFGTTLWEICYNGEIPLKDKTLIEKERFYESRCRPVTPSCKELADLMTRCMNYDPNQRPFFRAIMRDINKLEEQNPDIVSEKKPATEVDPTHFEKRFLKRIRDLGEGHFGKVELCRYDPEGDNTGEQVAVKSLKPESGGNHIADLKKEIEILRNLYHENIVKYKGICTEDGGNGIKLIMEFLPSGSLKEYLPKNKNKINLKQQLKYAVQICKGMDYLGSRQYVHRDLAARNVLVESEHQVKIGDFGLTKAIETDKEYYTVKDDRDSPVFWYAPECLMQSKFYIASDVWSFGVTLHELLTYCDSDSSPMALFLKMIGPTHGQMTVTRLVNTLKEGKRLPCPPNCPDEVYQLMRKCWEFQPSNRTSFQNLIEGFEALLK

PIM3 (human) = PIM3 (human) (UniProt Q86V86)
MAPKAPK5 (human) = MAPKAPK5 (human) (UniProt Q8IW41)
TBK1 (human) = TBK1 (human) (UniProt Q9UHD2)
Chain of TBK1 (human) (Q9UHD2 whole entry, looked up): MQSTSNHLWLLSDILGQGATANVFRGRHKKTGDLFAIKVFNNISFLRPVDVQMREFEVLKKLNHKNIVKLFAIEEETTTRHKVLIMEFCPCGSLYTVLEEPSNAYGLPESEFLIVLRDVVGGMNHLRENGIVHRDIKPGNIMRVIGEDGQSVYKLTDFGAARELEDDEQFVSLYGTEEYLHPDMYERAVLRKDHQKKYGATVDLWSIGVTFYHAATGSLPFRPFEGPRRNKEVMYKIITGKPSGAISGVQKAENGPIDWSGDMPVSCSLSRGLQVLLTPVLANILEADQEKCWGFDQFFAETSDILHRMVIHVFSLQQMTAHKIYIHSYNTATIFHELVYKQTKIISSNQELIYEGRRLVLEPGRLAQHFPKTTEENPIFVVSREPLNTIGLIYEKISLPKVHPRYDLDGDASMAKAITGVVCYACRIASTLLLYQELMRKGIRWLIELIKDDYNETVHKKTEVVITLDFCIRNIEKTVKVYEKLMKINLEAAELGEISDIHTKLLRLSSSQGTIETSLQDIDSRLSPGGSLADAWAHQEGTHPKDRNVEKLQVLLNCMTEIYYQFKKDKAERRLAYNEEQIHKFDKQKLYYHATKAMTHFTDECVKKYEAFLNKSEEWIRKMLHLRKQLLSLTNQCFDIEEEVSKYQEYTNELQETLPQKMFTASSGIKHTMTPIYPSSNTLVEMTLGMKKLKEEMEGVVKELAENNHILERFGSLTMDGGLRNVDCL

NUAK1 (human) = NUAK1 (human) (UniProt O60285)
ROCK1 (human) = ROCK1 (human) (UniProt Q13464)
EPHB1 (human) = EPHB1 (human) (UniProt P54762)
CHEK1 (human) = CHEK1 (human) (UniProt O14757)
CSNK1G3 (human) = CSNK1G3 (human) (UniProt Q9Y6M4)

Chain of MAPK3 (human) (P27361 whole entry, looked up): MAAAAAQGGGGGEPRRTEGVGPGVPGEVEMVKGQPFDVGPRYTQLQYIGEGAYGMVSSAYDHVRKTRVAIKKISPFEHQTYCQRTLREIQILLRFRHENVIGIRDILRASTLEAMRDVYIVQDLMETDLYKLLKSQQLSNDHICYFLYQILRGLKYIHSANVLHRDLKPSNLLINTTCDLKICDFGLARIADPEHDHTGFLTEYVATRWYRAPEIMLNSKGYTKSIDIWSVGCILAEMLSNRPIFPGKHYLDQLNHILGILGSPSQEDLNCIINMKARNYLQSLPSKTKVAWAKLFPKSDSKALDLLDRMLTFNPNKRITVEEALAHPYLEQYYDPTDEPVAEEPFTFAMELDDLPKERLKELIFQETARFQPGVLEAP
Chain of MARK4 (human) (Q96L34 whole entry, looked up): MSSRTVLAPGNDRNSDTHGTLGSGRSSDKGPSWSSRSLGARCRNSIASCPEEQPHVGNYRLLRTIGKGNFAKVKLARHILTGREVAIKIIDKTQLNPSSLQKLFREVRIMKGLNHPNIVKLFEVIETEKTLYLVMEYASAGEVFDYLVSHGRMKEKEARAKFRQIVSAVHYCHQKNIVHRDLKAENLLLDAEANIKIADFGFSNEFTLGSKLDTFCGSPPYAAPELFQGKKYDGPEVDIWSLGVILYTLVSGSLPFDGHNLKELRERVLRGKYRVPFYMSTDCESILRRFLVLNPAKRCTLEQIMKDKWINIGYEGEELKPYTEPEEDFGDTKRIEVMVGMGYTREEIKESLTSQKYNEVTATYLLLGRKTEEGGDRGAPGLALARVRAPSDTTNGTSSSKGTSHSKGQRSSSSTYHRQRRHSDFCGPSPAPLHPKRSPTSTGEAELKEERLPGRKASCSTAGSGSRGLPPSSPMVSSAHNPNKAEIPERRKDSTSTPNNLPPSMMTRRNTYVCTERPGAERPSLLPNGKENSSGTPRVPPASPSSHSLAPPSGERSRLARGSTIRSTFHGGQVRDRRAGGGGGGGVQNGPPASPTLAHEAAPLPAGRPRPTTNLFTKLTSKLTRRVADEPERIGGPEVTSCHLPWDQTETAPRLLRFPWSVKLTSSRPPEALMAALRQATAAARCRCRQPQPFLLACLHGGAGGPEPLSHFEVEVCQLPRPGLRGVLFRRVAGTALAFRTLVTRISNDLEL

`CNc1cc2c(Nc3cccc(Br)c3)ncnc2cn1` was tested, and the residual activity (PAK4 (human)) was 93%, the residual activity (MAPK3 (human)) was 97.3% and the residual activity (MAPK8 (human)) was 96.4%. It also gave a residual activity (MAPK10 (human)) of 96.1%, a residual activity (MARK4 (human)) of 84.5% and a residual activity (ABL1 (human)) of 89.8%. The residual activity (TSSK2 (human)) was 87.2%, the residual activity (MAP3K11 (human)) was 96.9% and the residual activity (IRAK1 (human)) was 85.2%. The residual activity (CDK4 CCND1 (human)) was 104%, the residual activity (PRKD2 (human)) was 86.4% and the residual activity (DYRK4 (human)) was 87.5%. The residual activity (DYRK1B (human)) was 92.3%, the residual activity (JAK2 JH1 JH2 (human)) was 82.1% and the residual activity (IKBKB (human)) was 98.2%. It also gave a residual activity (ROCK2 (human)) of 99.5%, a residual activity (PRKCH (human)) of 95.7% and a residual activity (SIK2 (human)) of 98.3%. For the same molecule, the residual activity (PRKCD (human)) was 94.7%, the residual activity (CSNK1A1 (human)) was 125% and the residual activity (ABL2 (human)) was 84.8%. It also gave a residual activity (STK39 (human)) of 94%, a residual activity (PAK7 (human)) of 90.8% and a residual activity (ROS1 (human)) of 89.1%. The residual activity (CLK4 (human)) was 60.9%, the residual activity (MAPK11 (human)) was 115% and the residual activity (STK17A (human)) was 98.4%. For the same molecule, the residual activity (CAMK2D (human)) was 97.9%, the residual activity (PRKCB2 (human)) was 102% and the residual activity [1] was 79.9%. It also gave a residual activity (PIM3 (human)) of 55.2%, a residual activity (MAPKAPK5 (human)) of 99.3% and a residual activity (TBK1 (human)) of 94.5%. For the same molecule, the residual activity (NUAK1 (human)) was 97.5%, the residual activity (ROCK1 (human)) was 98.8% and the residual activity (EPHB1 (human)) was 90.2%. The residual activity (CHEK1 (human)) was 108% and the residual activity (CSNK1G3 (human)) was 86.3%.

Work on `CCCC(=O)Oc1ccc2[nH]c(C(=O)c3cc4ccccc4[nH]3)cc2c1` yielded a residual activity (PAK4 (human)) of 87.4%, a residual activity (MAPK3 (human)) of 87.9% and a residual activity (MAPK8 (human)) of 84%. The residual activity (MAPK10 (human)) was 100%, the residual activity (MARK4 (human)) was 84.1% and the residual activity (ABL1 (human)) was 100%. For the same molecule, the residual activity (TSSK2 (human)) was 78%, the residual activity (MAP3K11 (human)) was 98.7% and the residual activity (IRAK1 (human)) was 90.5%. The residual activity (CDK4 CCND1 (human)) was 106%, the residual activity (PRKD2 (human)) was 91.7% and the residual activity (DYRK4 (human)) was 86%. The residual activity (DYRK1B (human)) was 103%, the residual activity (JAK2 JH1 JH2 (human)) was 106% and the residual activity (IKBKB (human)) was 98.7%. For the same molecule, the residual activity (ROCK2 (human)) was 103%, the residual activity (PRKCH (human)) was 93.6% and the residual activity (SIK2 (human)) was 97.6%. It also gave a residual activity (PRKCD (human)) of 88.8%, a residual activity (CSNK1A1 (human)) of 94% and a residual activity (ABL2 (human)) of 96.3%. For the same molecule, the residual activity (STK39 (human)) was 117%, the residual activity (PAK7 (human)) was 91% and the residual activity (ROS1 (human)) was 97%. For the same molecule, the residual activity (CLK4 (human)) was 90.2%, the residual activity (MAPK11 (human)) was 87.7% and the residual activity (STK17A (human)) was 90.9%. It also gave a residual activity (CAMK2D (human)) of 111%, a residual activity (PRKCB2 (human)) of 102% and a residual activity [1] of 104%. It also gave a residual activity (PIM3 (human)) of 84.5%, a residual activity (MAPKAPK5 (human)) of 101% and a residual activity (TBK1 (human)) of 119%. It also gave a residual activity (NUAK1 (human)) of 94%, a residual activity (ROCK1 (human)) of 105% and a residual activity (EPHB1 (human)) of 92.1%. It also gave a residual activity (CHEK1 (human)) of 89.7% and a residual activity (CSNK1G3 (human)) of 82.7%.
